In patent publication US20200360306A1, “USE OF CO-CRYSTALS OF TRAMADOL AND CELECOXIB FOR TREATING PAIN WHILE REDUCING THE ABUSE LIABILITY OF TRAMADOL” (ESTEVE PHARMACEUTICALS, S.A., priority 2019, published 2020):
Several values for one entry are separate records, joined by “and”; a condition that tells them apart may be missing. Equal entries are not always repeated.

Experiment: Single dose, randomized, open-label, 4-period crossover pharmacokinetic study; plasma tramadol and O-desmethyltramadol (M1) by HPLC-MS/MS; AQ=Cmax/Tmax
Conditions: healthy subjects; for AQ for tramadol, comparison between treatments (statistical significance): 4-way cross-over study; for O-desmethyltramadol AQ / O-desmethyltramadol Cmax / O-desmethyltramadol Tmax / Tramadol AQ / Tramadol Cmax: 2 × 100 mg co-crystal E-58425 tablets (Treatment 1), oral
Method: The study was a single center, randomized, single dose, open-label, 4-period, 4-sequence, crossover design in healthy male and female subjects.
The products were administered to 36 subjects. The wash-out between the periods for each subject was of 7 calendar days.
Separate blood samples were obtained for analysis of tramadol/M1 metabolite and for analysis of celecoxib (data not shown).
As soon as possible following blood collection, samples were centrifuged at a temperature of 4° C. nominal and at approximately 1500 g for 10 minutes. The plasma obtained was separated into duplicate polypropylene culture tubes. […] The samples were frozen in an upright position and retained in the clinic's freezers at a temperature of −20° C. nominal until sent on dry ice to the bioanalytical facility for assay.
The experimental human plasma samples were assayed for tramadol and M1 metabolite (O-desmethyltramadol) and also for celecoxib (data not shown) using two different validated bioanalytical methods by HPLC with MS/MS detection.
Sample pre-treatment involved the liquid-liquid extraction of tramadol and O-desmethyltramadol from 0.100 mL of human plasma; tramadol-D6 and O-desmethyltramadol-D6 were used as the internal standards (IS1 and IS2 respectively). The compounds were identified and quantified using Hilic HPLC with MS/MS detection over a theoretical concentration range of 2.00 ng/mL to 800.00 ng/mL for tramadol and 0.500 ng/mL to 200.00 ng/mL for O-desmethyltramadol. The concentrations were calculated using peak area ratios and the linearity of the calibration curve was determined using a weighted (1/x^2) linear (y=mx+b) least squares regression analysis for tramadol and for O-desmethyltramadol.
Pharmacokinetic parameters were estimated from the individual plasma concentration—time profile for each subject. The main absorption and disposition parameters were obtained using a non-compartmental approach with a log-linear terminal phase assumption. Maximum observed plasma concentration (Cmax) and the time of maximum observed plasma concentration (Tmax) were obtained directly from the experimental data. The trapezoidal rule was used to estimate the area under the curve (AUC; data not shown) and the terminal phase was estimated by maximizing the coefficient of determination estimated from the log-linear regression model (T1/2; data not shown). The abuse quotient was obtained using the following expression AQ=Cmax/Tmax.

[1] = Table 3 summary, oral co-crystal E-58425 tablets

Compound: COc1cccc([C@]2(O)CCCC[C@@H]2CN(C)C)c1.Cc1ccc(-c2cc(C(F)(F)F)nn2-c2ccc(S(N)(=O)=O)cc2)cc1.Cl (racemic) [co-crystal E-58425, co-crystal of (rac)-tramadol.HCl and celecoxib]
- AQ for tramadol, comparison between treatments (statistical significance): better (lower) AQ ratio
- AQ for tramadol, comparison between treatments (statistical significance) (listed as Co-crystal E-58425): lower than those obtained for Ultram® and for Ultram® and Celebrex® taken concomitantly
- O-desmethyltramadol AQ (Mean, n=33): 13.5 ng/(mL · h)
- O-desmethyltramadol Cmax (Mean, n=33): 54.5 ng/mL
- O-desmethyltramadol Tmax (Mean, n=33): 4.4 h
- Tramadol AQ (Mean, n=33): 70.5 ng/(mL · h)
- Tramadol Cmax (Mean, n=33): 214.3 ng/mL
- O-desmethyltramadol AQ (Median, n=33): 13.3 ng/(mL · h)
- O-desmethyltramadol Cmax (Median, n=33): 55.4 ng/mL
- Tramadol AQ (Median, n=33): 70.7 ng/(mL · h)
- Tramadol Cmax (Median, n=33): 207.5 ng/mL
- AQ M1 Mean [1]: 13.5
- AQ Tramadol Mean [1]: 70.5
- O-desmethyltramadol Tmax (individual subject values, fasting, plasma): 3.00 h and 4.00 h
